Source: US11865119B2, “Methods of treating agitation and other dementia-associated behavioral symptoms” (Woolsey Pharmaceuticals, Inc., priority 2021, dated 2024)

Key:
mice = settings: six-month old mice; 10 mg/kg oral gavage once a day for 30 days; assessed over final 3 days; vs water; cited from earlier work
[1] = tested on: agitation in patients with Alzheimer's Dementia (AD); experiment: Clinical trial of oral fasudil in reducing agitation in patients with Alzheimer's Dementia (CMAI, NPI-Q); assay type: in vivo, human; settings: cutoff moved from 0 to 35 in 5-point increments; FIG. 3
Procedure: All the patients were treated for 6 weeks with 90 mg per day (30 mg TID) and a subset of patients was treated an additional 6 weeks with 180 mg per day (60 mg TID). […] A variety of assessments were conducted at baseline and at the end of treatment, including the NPI-Q and the CMAI.
Two baseline thresholds were set, and two analyses were done based on the two groupings that resulted. One threshold was based on the agitation/aggression domain of the NPI-Q and the other based on the CMAI score.
The first selection was based on NPI-Q score of ≥4.
The second selection required a baseline CMAI score of ≥20 and this yielded a 13-patient subgroup, having a mean baseline CMAI score of 34.4. […] All the patients selected using the NPI-Q agitation/aggression domain score of ≥4 were also included in this subgroup.
The analysis looked at the CMAI score prior to treatment and compared it to the last day of treatment (6 weeks for the 10 patients on the low dose and 12 weeks for the 3 patients on the high dose).
Finally, to examine the effects of changing the CMAI-C threshold, 5-point increments were used to move the cutoff from 0 to 35. […] It was concluded that setting the CMAI-C threshold of at least 5 provided a meaningful result over the population, even though higher thresholds we more powerful at detecting change.

O=S(=O)(c1cccc2cnccc12)N1CCCNCC1 [fasudil]
amount of time spent in the open arms of the maze (mice): significantly reduced
effect of changing the baseline CMAI-C threshold on magnitude of observed effect [1]: As the threshold increased, so did the magnitude of the observed effect
